Among the data in publication PMC7265552 (Scientific Reports, 2020) are IC50 values, retold here.

Where a chain is given by its changes, count along the chain named. Read-outs that look alike come from different tables or passages of the source.

The target in one assay is T1, human WT TYK2 (Homo sapiens, UniProt P29597).
T1 construct: His-tagged recombinant human TYK2, mouse TYK2, and human TYK2 I960V mutant kinase domains were expressed in insect cell/baculovirus systems; His; made in house; host or cells: insect cell/baculovirus
T1 sequence (P29597 897-1176 limits assumed): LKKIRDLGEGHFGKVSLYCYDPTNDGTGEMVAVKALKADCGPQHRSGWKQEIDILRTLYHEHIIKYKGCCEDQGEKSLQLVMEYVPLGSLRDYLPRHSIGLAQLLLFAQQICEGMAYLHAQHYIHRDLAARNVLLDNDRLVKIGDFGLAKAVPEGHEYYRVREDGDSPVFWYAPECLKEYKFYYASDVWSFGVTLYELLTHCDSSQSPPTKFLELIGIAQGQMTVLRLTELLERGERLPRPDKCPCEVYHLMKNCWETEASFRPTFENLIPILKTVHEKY
Description: JAK Caliper enzyme end-point IC50 assay, human WT TYK2. The conditions noted are these: ATP 1 mM; geometric mean ± SD. Type of assay: biochemical.

Another assay addresses T2, mouse WT TYK2 (Mus musculus, UniProt Q9R117).
T2 construct: His-tagged recombinant human TYK2, mouse TYK2, and human TYK2 I960V mutant kinase domains were expressed in insect cell/baculovirus systems; His; made in house; host or cells: insect cell/baculovirus
T2 sequence (Q9R117 894-1166 limits assumed): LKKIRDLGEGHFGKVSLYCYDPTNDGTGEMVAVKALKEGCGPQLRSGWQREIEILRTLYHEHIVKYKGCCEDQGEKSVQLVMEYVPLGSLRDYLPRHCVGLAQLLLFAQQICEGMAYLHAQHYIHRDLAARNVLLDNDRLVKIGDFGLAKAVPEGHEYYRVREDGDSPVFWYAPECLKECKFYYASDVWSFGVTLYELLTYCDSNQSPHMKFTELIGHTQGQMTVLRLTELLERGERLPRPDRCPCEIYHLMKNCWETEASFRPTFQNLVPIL
The assay is described as follows: JAK Caliper enzyme end-point IC50 assay, mouse WT TYK2. It is filed as biochemical.

For a further assay, the target named is T3, human TYK2 I960V mutant (Homo sapiens, UniProt P29597, I960V).
T3 sequence (P29597 897-1176 I960V limits assumed): T1 sequence (P29597 897-1176 limits assumed) with I64V
Description: JAK Caliper enzyme end-point IC50 assay, human TYK2 I960V mutant. The conditions noted are these: read-out: Human TYK2 I960V IC50; ATP 1 mM; geometric mean ± SD.

Assay [1] concerns IL-12 (TYK2/JAK2) induced pSTAT4. Description: Phospho-STAT inhibition in lymphocytes, IL-12, human. The conditions noted are these: geomean ± SD, four experiments. It is filed as cell-based.
Assay [2] shares this test system. Description: Phospho-STAT inhibition in lymphocytes, IL-12, mouse WT. The conditions noted are these: Leukocyte, read-out: IL-12 (TYK2/JAK2) induced pSTAT4 IC50, Mouse WT. Type of assay: cell-based, mouse (C57BL/6).
In assay [3] the test system is IL-15 (JAK1/JAK3) induced pSTAT5. The assay is described as follows: Phospho-STAT inhibition in lymphocytes, IL-15, human. Type of assay: cell-based. The conditions noted are these: Leukocyte, read-out: IL-15 (JAK1/JAK3) induced pSTAT5 IC50, Human WT.
The test system is the same in assay [4]. Description: Phospho-STAT inhibition in lymphocytes, IL-15, mouse WT. It is filed as cell-based, mouse (C57BL/6). The conditions noted are these: Leukocyte, read-out: IL-15 (JAK1/JAK3) induced pSTAT5 IC50, Mouse WT.
Assay [5] relates to IL-12 (TYK2/JAK2) induced pSTAT4. Description: Phospho-STAT inhibition in lymphocytes, IL-12, mouse V980I knock-in. It is filed as cell-based, mouse (C57BL/6 TYK2 V980I knock-in). The conditions noted are these: Lymphocyte, read-out: IL-12 (TYK2/JAK2) induced pSTAT4 IC50, Mouse V980I KI.
Assay [6] has the same test system. The assay is described as follows: Phospho-STAT inhibition in lymphocytes, IL-12, dog. Type of assay: cell-based, dog (Beagle). The conditions noted are these: Canis lupus familiaris, Leukocyte, read-out: IL-12 (TYK2/JAK2) induced pSTAT4 IC50, Dog WT.
Assay [7] shares this test system. The assay is described as follows: Phospho-STAT inhibition in lymphocytes, IL-12, monkey. The conditions noted are these: Primates, Leukocyte, read-out: IL-12 (TYK2/JAK2) induced pSTAT4 IC50, Monkey WT. Type of assay: cell-based, monkey (cynomolgus).
Assay [8] has as its system IL-12/IL-18 induced IFNγ production. Description: PK/PD IL-12/18 induced interferonγ production model, wild type mice. It is filed as in vivo, C57BL/6 wild type mice. The conditions noted are these: Mus musculus, 4 h, read-out: IC50 (IC50,u) for inhibition of IL-12/IL-18-induced IFNγ production.
Assay [9] has the same test system. Description: PK/PD IL-12/18 induced interferonγ production model, TYK2 V980I mice. It is filed as in vivo, C57BL/6 TYK2 V980I mice. The conditions noted are these: Mus musculus, 4 h, read-out: IC50 (IC50,u) for inhibition of IL-12/IL-18-induced IFNγ production.

As to `Cn1cc(Nc2ncc(F)c(N3C[C@H]4C[C@@]4(NC(=O)[C@@H]4CC4(F)F)C3)n2)cn1` [Compound 26], the IC50 is 38 ± 8 nM against human WT TYK2; 2120 ± 465 nM at mouse WT TYK2 (ATP 1 mM, geometric mean ± SD); 1560 ± 257 nM on human TYK2 I960V mutant.
Turning to `CCNC(=O)c1ncc(Nc2ncc(F)c(N3C[C@H]4CC[C@@H](C3)N4CCC#N)n2)cc1C` [Compound 17], the IC50 against human WT TYK2 stood at 46 ± 11 nM; against mouse WT TYK2 (ATP 1 mM, geometric mean ± SD), 1520 ± 217 nM; on human TYK2 I960V mutant, 1220 ± 220 nM.
In the same order, the values of `C[C@@H]1C2CN(c3nc(Nc4cn[nH]c4)ncc3F)C[C@@]21NC(=O)[C@H]1CC1(F)F` (some centres unmarked) [Compound 23] are 13 ± 4 nM, 466 ± 78 nM and 388 ± 50 nM.
With `Cn1cc(Nc2nccc(N3C[C@H]4CC[C@@H](C3)N4CCC#N)n2)cn1` [Compound 22], the IC50 against human WT TYK2 amounted to 73 ± 18 nM; against mouse WT TYK2 (ATP 1 mM, geometric mean ± SD) it was 1330 ± 396 nM; at human TYK2 I960V mutant, 1020 ± 263 nM.
Taken in the same sequence, the figures for `CCNC(=O)c1ccc(Nc2ncc(C)c(N3C[C@H]4C[C@@H]3CN4S(C)(=O)=O)n2)cc1` [Compound 15] were 371 ± 37 nM, 5240 ± 605 nM and 3590 ± 257 nM.
For the compound `CNC(=O)c1ncc(Nc2nccc(N3C[C@H]4C[C@@]4(NC(=O)C4CC4)C3)n2)cc1C` [Compound 19], the IC50 on human WT TYK2 came out at 208 ± 51 nM; on mouse WT TYK2 (ATP 1 mM, geometric mean ± SD), 8160 ± 2030 nM; at human TYK2 I960V mutant it was 7390 ± 1950 nM.
In the same order, the values of `Cc1cnc(Nc2cnn(CCO)c2)nc1N1CC2C[C@@]2(NC(=O)C2CC2)C1` (some centres unmarked) [Compound 20] are 67 ± 21 nM, 784 ± 207 nM and 435 ± 174 nM.
As for `CCNC(=O)c1ncc(Nc2ncc(Cl)c(N3C[C@H]4C[C@@]4(NC(=O)C4CC4)C3)n2)cc1C` [Compound 18], the IC50 worked out at 35 ± 34 nM against human WT TYK2; 841 ± 989 nM against mouse WT TYK2 (ATP 1 mM, geometric mean ± SD); 538 ± 622 nM on human TYK2 I960V mutant.
Taken in the same sequence, the figures for `CCNC(=O)c1ccc(Nc2nccc(N3C[C@H]4C[C@@H](C3)N4C(=O)C(F)(F)F)n2)cc1` [Compound 16] were 135 ± 89 nM, 3580 ± 1980 nM and 2570 ± 1560 nM.
Taken in the same sequence, the figures for `Cc1cnc(Nc2cnn(C)c2)nc1N1C[C@H]2CC[C@@H](C1)N2C(=O)[C@@H]1CC1(F)F` [Compound 28] were 15 ± 6 nM, 180 ± 89 nM and 55 ± 25 nM.
Taken in the same sequence, the figures for `Cn1cc(Nc2ncc(Cl)c(N3C[C@H]4CC[C@@H](C3)N4C(=O)[C@@H]3CC3(F)F)n2)cn1` [Compound 29] were 8 ± 4 nM, 100 ± 17 nM and 30 ± 1 nM.
With `C[C@@H]1[C@@H]2CN(c3nc(Nc4cnn(C)c4)ncc3F)C[C@]12NC(=O)[C@@H]1CC1(F)F` [PF-06673518], the IC50 is 1410 nM on mouse WT TYK2; 64 nM in [1] (Homo sapiens, Leukocyte, read-out: IL-12 (TYK2/JAK2) induced pSTAT4 IC50, Human WT, human leukocytes, no serum or other proteins); 64.3 ± 10 nM in [1] (read-out: IL-12 (TYK2/JAK2) induced pSTAT4 IC50, Human WT, human leukocytes, no serum or other proteins); 518 ± 84 nM in assay [2]; 135 ± 15 nM in assay [3]; 127 ± 6.7 nM in assay [4]. In addition, the IC50 in assay [5] came out at 128 ± 11 nM; in assay [6], 679 ± 254 nM; in assay [7] it was 527 ± 147 nM; in assay [8], 1280 nM; in assay [9], 26.6 nM.
Turning to `Cc1cnc(Nc2cnn(C)c2)nc1N1C[C@H]2[C@@H](C)[C@@]2(NC(=O)C2CC2)C1` [Compound 21], the IC50 was 50 ± 46 nM against human WT TYK2; 1160 ± 1040 nM against mouse WT TYK2 (ATP 1 mM, geometric mean ± SD); 484 ± 369 nM on human TYK2 I960V mutant.
